Source: patent publication US10246429B2, “Vinyl fluoride cyclopropyl fused thiazin-2-amine compounds as beta-secretase inhibitors and methods of use” (AMGEN INC., priority 2015, dated 2019)

What was measured:
[1] = molecular target: BACE2 (Homo sapiens (Human), UniProt Q9Y5Z0); assay: In vitro enzymatic BACE2 FRET assay; type: biochemical; settings: read-out: IC50 IP (μM) BACE2 Enzyme
Excerpt: (§1) In Vitro Enzymatic BACE1 and BACE2 FRET (Fluorescence Resonance Energy Transfer) Assays (Enzyme Assay Data in Table 1)

[2] = molecular target: T1, BACE1 (Homo sapiens (Human), UniProt P56817); assay: BACE1 cell assay; type: cell-based
Target sequence in this assay (P56817 46-501, species assumed): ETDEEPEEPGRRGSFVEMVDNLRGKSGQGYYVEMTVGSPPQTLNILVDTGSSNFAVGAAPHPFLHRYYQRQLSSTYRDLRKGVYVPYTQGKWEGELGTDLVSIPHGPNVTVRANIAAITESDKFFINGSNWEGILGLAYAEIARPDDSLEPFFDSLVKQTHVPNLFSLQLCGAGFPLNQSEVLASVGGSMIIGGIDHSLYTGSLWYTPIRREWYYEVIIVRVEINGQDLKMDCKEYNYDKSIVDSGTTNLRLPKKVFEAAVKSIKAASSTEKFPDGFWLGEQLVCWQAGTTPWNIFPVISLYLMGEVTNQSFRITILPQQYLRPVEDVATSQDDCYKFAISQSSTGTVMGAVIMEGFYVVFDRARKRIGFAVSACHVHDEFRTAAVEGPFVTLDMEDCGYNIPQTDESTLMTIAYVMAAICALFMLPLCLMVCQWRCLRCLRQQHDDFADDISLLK

[3] = molecular target: T1, BACE1; assay: In vitro enzymatic BACE1 FRET assay; type: biochemical; settings: read-out: IC50 IP (μM) BACE1 Enzyme
Target sequence in this assay (P56817 46-501): as the sequence (P56817 46-501, species assumed) above
Excerpt: as §1

[4] = molecular target: Cathepsin D (CatD) (Homo sapiens (Human), UniProt P07339); assay: CatD assay; type: biochemical; settings: read-out: IC50 IP (μM) CatD
[5] = read-out: IC50 IP (μM) BACE1 Cell

Sequence of Cathepsin D (CatD) (P07339 65-412, species assumed): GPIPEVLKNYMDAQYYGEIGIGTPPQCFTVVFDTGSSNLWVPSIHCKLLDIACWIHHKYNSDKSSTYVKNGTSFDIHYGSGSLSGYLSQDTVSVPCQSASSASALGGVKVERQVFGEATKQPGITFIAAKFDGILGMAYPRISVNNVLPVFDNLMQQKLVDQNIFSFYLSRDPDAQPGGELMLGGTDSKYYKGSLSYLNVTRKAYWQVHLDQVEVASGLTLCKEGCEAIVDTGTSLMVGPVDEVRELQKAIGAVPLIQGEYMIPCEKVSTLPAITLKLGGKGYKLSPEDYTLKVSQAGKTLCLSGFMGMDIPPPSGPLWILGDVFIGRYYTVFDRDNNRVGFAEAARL
Sequence of BACE2 (Q9Y5Z0 63-518): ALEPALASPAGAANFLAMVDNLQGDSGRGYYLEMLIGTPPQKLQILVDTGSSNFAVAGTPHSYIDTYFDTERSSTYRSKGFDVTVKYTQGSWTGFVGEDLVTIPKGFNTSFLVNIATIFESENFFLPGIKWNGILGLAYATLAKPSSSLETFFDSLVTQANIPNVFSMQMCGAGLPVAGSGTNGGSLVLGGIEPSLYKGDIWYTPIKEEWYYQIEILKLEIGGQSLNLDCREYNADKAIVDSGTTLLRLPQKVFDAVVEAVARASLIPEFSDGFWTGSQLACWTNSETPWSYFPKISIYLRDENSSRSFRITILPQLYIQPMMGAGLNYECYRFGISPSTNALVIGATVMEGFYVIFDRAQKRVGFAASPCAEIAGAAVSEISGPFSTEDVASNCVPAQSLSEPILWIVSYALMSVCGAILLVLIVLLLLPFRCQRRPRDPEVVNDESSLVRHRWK

SMILES | IC50 [1] [µM] | IC50 [2, 5] [µM] | IC50 [3] [µM] | IC50 [4] [µM] | IC50 [2] [µM]
C[C@]1(c2cc(/C=C(\F)c3ccccn3)ccc2F)N=C(N)S[C@@]2(C(=O)N3CCOCC3)C[C@H]21 [Example 339, ((1S,5S,6S)-3-amino-5-(2-fluoro-5-((Z)-2-fluoro-2-(pyridin-2-yl)vinyl)phenyl)-5-methyl-2-thia-4-azabicyclo[4.1.0]hept-3-en-1-yl)(morpholino)methanone] | 0.165 | 0.252 | 0.22 | 520 | 
CC(=O)[C@]12C[C@H]1[C@@](C)(c1cc(/C=C(\F)c3cnc(OCC(F)(F)F)cn3)ccc1F)N=C(N)S2 [Example 236, 1-((1S,5S,6S)-3-amino-5-(2-fluoro-5-((Z)-2-fluoro-2-(5-(2,2,2-trifluoroethoxy)pyrazin-2-yl)vinyl)phenyl)-5-methyl-2-thia-4-azabicyclo[4.1.0]hept-3-en-1-yl)ethanone] | 1.28 | 0.284 | 0.118 | 400 | 
C[C@]1(c2cc(/C=C(\F)c3ccc(C#N)cn3)cnc2F)N=C(N)S[C@@]2(C(=O)NCC(F)F)C[C@H]21 [Example 281, (1S,5S,6S)-3-amino-5-(5-((Z)-2-(5-cyanopyridin-2-yl)-2-fluorovinyl)-2-fluoropyridin-3-yl)-N-(2,2-difluoroethyl)-5-methyl-2-thia-4-azabicyclo[4.1.0]hept-3-ene-1-carboxamide] | 0.164 |  | 0.0214 | 269 | 0.0542
CNC(=O)[C@]12C[C@H]1[C@@](C)(c1cc(/C=C(\F)c3ccc(C(F)(F)F)cn3)ccc1F)N=C(N)S2 [Example 224, (1S,5S,6S)-3-amino-5-(2-fluoro-5-((Z)-2-fluoro-2-(5-(trifluoromethyl)pyridin-2-yl)vinyl)phenyl)-N,5-dimethyl-2-thia-4-azabicyclo[4.1.0]hept-3-ene-1-carboxamide] | 0.564 |  | 0.015 | 396 | 0.031
CNC(=O)[C@]12C[C@H]1[C@@](C)(c1cc(/C=C(\F)c3cnc(C#CCO)cn3)ccc1F)N=C(N)S2 [Example 362, (1S,5S,6S)-3-amino-5-(2-fluoro-5-((Z)-2-fluoro-2-(5-(3-hydroxyprop-1-yn-1-yl)pyrazin-2-yl)vinyl)phenyl)-N,5-dimethyl-2-thia-4-azabicyclo[4.1.0]hept-3-ene-1-carboxamide] | 0.365 | 0.104 | 0.004 | 349 | 
C[C@]1(c2cc(/C=C(\F)c3ccc(C#N)cn3)ccc2F)N=C(N)S[C@@]2(C#N)C[C@H]21 [Example 245, (1S,5S,6S)-3-amino-5-(5-((Z)-2-(5-cyanopyridin-2-yl)-2-fluorovinyl)-2-fluorophenyl)-5-methyl-2-thia-4-azabicyclo[4.1.0]hept-3-ene-1-carbonitrile] | 0.057 | 0.0341 | 0.005 | 400 | 
C[C@]1(c2cc(/C=C(\F)c3ccc(C#N)cn3)ccc2F)N=C(N)S[C@@]2(C(=O)N3CCCC3c3ccccc3)C[C@H]21 (stereo partly drawn) [Example 337, 6-((Z)-2-(3-((1S,5S,6S)-3-amino-5-methyl-1-(2-phenylpyrrolidine-1-carbonyl)-2-thia-4-azabicyclo[4.1.0]hept-3-en-5-yl)-4-fluorophenyl)-1-fluorovinyl)nicotinonitrile] | 0.046 | 0.01 | 0.0044 | 2.4 | 
C[C@]1(c2cc(/C=C(\F)c3ccc(C#N)cn3)ccc2F)N=C(N)S[C@@]2(C(=O)N3CCNC(=O)CC3)C[C@H]21 [Example 142, 6-((Z)-2-(3-((1S,5S,6S)-3-amino-5-methyl-1-(5-oxo-1,4-diazepane-1-carbonyl)-2-thia-4-azabicyclo[4.1.0]hept-3-en-5-yl)-4-fluorophenyl)-1-fluorovinyl)nicotinonitrile] | 0.0173 | 0.00219 | 0.00178 | 400 | 
C[C@H]1CCN1C(=O)[C@]12C[C@H]1[C@@](C)(c1cc(/C=C(\F)c3ccc(Cl)cn3)ccc1F)N=C(N)S2 (single isomer, unassigned) [Example 119] | 0.00752 | 0.00406 | 0.0034 | 42.3 | 
C#CCOc1cnc(/C(F)=C/c2cnc(F)c([C@@]3(C)N=C(N)S[C@@]4(C(=O)OC)C[C@H]43)c2)cn1 [Example 294, (1S,5S,6S)-methyl 3-amino-5-(2-fluoro-5-((Z)-2-fluoro-2-(5-(prop-2-yn-1-yloxy)pyrazin-2-yl)vinyl)pyridin-3-yl)-5-methyl-2-thia-4-azabicyclo[4.1.0]hept-3-ene-1-carboxylate methanone] | 2.76 | 0.0949 | 0.0089 | 400 | 
C[C@]1(c2cc(/C=C(\F)c3ccc(C#N)cn3)ccc2F)N=C(N)S[C@@]2(C(=O)N3CCOCC34CCC4)C[C@H]21 [Example 331, 6-((Z)-2-(3-((1S,5S,6S)-3-amino-5-methyl-1-(8-oxa-5-azaspiro[3.5]nonane-5-carbonyl)-2-thia-4-azabicyclo[4.1.0]hept-3-en-5-yl)-4-fluorophenyl)-1-fluorovinyl)nicotinonitrile] | 0.061 | 0.0032 | 0.0013 | 8.9 | 
C[C@]1(c2cc(/C=C(\F)c3ccc(Cl)cn3)ccc2F)N=C(N)S[C@@]2(C(N)=O)C[C@H]21 [Example 242, (1S,5S,6S)-3-amino-5-(5-((Z)-2-(5-chloropyridin-2-yl)-2-fluorovinyl)-2-fluorophenyl)-5-methyl-2-thia-4-azabicyclo[4.1.0]hept-3-ene-1-carboxamide] | 0.034 |  | 0.0164 | 205 | 0.0181
CN(C)C(=O)[C@]12C[C@H]1[C@@](C)(c1cc(/C=C(\F)c3ncc(C#N)s3)ccc1F)N=C(N)S2 [Example 219, (1S,5S,6S)-3-amino-5-(5-((Z)-2-(5-cyanothiazol-2-yl)-2-fluorovinyl)-2-fluorophenyl)-N,N,5-trimethyl-2-thia-4-azabicyclo[4.1.0]hept-3-ene-1-carboxamide] | 0.007 | 0.005 | 0.004 | 110 | 
COC(CNC(=O)[C@]12C[C@H]1[C@@](C)(c1cc(/C=C(\F)c3ccc(C#N)cn3)ccc1F)N=C(N)S2)OC [Example 341, (1S,5S,6S)-3-amino-5-(5-((Z)-2-(5-cyanopyridin-2-yl)-2-fluorovinyl)-2-fluorophenyl)-N-(2,2-dimethoxyethyl)-5-methyl-2-thia-4-azabicyclo[4.1.0]hept-3-ene-1-carboxamide] | 0.024 | 0.0011 | 0.003 | 6.8 | 
CC(C)[C@@H]1CN(C(=O)[C@]23C[C@H]2[C@@](C)(c2cc(/C=C(\F)c4ccc(C#N)cn4)ccc2F)N=C(N)S3)CCO1 [Example 317, 6-((Z)-2-(3-((1S,5S,6S)-3-amino-1-((R)-2-isopropylmorpholine-4-carbonyl)-5-methyl-2-thia-4-azabicyclo[4.1.0]hept-3-en-5-yl)-4-fluorophenyl)-1-fluorovinyl)nicotinonitrile] | 0.007 | 0.007 | 0.0018 | 115 | 
C[C@]1(c2cc(/C=C(\F)c3ccc(C#N)cn3)ccc2F)N=C(N)S[C@@]2(S(C)(=O)=O)C[C@H]21 [Example 233, 6-((Z)-2-(3-((1R,5S,6S)-3-amino-5-methyl-1-(methylsulfonyl)-2-thia-4-azabicyclo[4.1.0]hept-3-en-5-yl)-4-fluorophenyl)-1-fluorovinyl)nicotinonitrile] | 0.014 | 0.0087 | 0.0016 | 204 | 
C#CCOc1cnc(/C(F)=C/c2cnc(F)c([C@@]3(C)N=C(N)S[C@@]4(C(=O)N(C)C)C[C@H]43)c2)cn1 [Example 287, (1S,5S,6S)-3-amino-5-(2-fluoro-5-((Z)-2-fluoro-2-(5-(prop-2-yn-1-yloxy)pyrazin-2-yl)vinyl)pyridin-3-yl)-N,N,5-trimethyl-2-thia-4-azabicyclo[4.1.0]hept-3-ene-1-carboxamide] | 0.04 | 0.0022 | 0.0019 | 206 | 
CC1CCN1C(=O)[C@]12C[C@H]1[C@@](C)(c1cc(/C=C(\F)c3ccc(Cl)cn3)ccc1F)N=C(N)S2 (stereo partly drawn) [Example 116, ((1S,5S,6S)-3-amino-5-(5-((Z)-2-(5-chloropyridin-2-yl)-2-fluorovinyl)-2-fluorophenyl)-5-methyl-2-thia-4-azabicyclo[4.1.0]hept-3-en-1-yl)(2-methylazetidin-1-yl)methanone] | 0.0119 | 0.00929 | 0.00623 | 107 | 
C#CCOc1cnc(/C(F)=C/c2ccc(F)c([C@@]3(C)N=C(N)S[C@@]4(C#N)C[C@H]43)c2)cn1 [Example 240, (1S,5S,6S)-3-amino-5-(2-fluoro-5-((Z)-2-fluoro-2-(5-(prop-2-yn-1-yloxy)pyrazin-2-yl)vinyl)phenyl)-5-methyl-2-thia-4-azabicyclo[4.1.0]hept-3-ene-1-carbonitrile] | 0.081 | 0.0175 | 0.0012 | 124 | 
CN(C)C(=O)[C@]12C[C@H]1[C@@](C)(c1cc(/C=C(\F)c3ccc(Br)cn3)ccc1F)N=C(N)S2 [Example 108, (1S,5S,6S)-3-amino-5-(5-((Z)-2-(5-bromopyridin-2-yl)-2-fluorovinyl)-2-fluorophenyl)-N,N,5-trimethyl-2-thia-4-azabicyclo[4.1.0]hept-3-ene-1-carboxamide] | 0.00292 | 0.00853 | 0.00199 | 519 | 
CN(C)C(=O)[C@]12C[C@H]1[C@@](C)(c1cc(/C=C(\F)c3cnc(OCC(F)F)cn3)ccc1F)N=C(N)S2 [Example 213, (1S,5S,6S)-3-amino-5-(5-((Z)-2-(5-(2,2-difluoroethoxy)pyrazin-2-yl)-2-fluorovinyl)-2-fluorophenyl)-N,N,5-trimethyl-2-thia-4-azabicyclo[4.1.0]hept-3-ene-1-carboxamide] | 0.065 | 0.039 | 0.021 | 103 | 
